Results on eleven molecules are retold here after patent US6274590A, “Method of treating skin related conditions” (G. D. Searle & Co., priority 2000, dated 2001).

For series [1] the following is noted: reported in cited literature or patents; cited from earlier work.
Series [2] has as its target T1, Murine COX I (Mus musculus, UniProt P22437).
T1 construct: A 2.0 kb fragment containing the coding region; made in house; host or cells: SF9 insect cells (recombinant baculovirus, pVL1393)
T1 sequence (P22437 27-602): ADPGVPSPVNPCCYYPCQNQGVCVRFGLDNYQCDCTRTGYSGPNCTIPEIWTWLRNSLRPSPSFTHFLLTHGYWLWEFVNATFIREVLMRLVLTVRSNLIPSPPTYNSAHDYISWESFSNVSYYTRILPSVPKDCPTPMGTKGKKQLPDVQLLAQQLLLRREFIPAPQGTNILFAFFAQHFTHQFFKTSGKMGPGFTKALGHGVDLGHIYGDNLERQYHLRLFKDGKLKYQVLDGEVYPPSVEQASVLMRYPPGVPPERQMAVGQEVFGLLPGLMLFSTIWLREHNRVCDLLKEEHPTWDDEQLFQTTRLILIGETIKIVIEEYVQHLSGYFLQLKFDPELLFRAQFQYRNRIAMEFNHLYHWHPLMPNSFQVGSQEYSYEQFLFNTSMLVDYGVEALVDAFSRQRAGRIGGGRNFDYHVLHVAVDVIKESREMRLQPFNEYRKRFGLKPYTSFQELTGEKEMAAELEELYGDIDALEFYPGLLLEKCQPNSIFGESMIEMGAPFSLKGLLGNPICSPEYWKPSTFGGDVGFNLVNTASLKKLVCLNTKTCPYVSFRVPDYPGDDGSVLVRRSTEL
Description: COX I activity in vitro (PGE2 ELISA, recombinant enzyme). It counts as biochemical. Conditions: arachidonic acid 10 μM, read-out: Murine COX I ID50. Here is the method:
(§1) A 2.0 kb fragment containing the coding region of either human or murine COX-I or human or murine COX-II was cloned into a BamH1 site of the baculovirus transfer vector pVL1393 to generate the baculovirus transfer vector. Recombinant baculoviruses were isolated by transfecting 4 μg of baculovirus transfer vector DNA into SF9 cells (2×10e8) along with 200 ng of linearized baculovirus plasmid DNA by the calcium phosphate method. Recombinant viruses were purified by three rounds of plaque purification and high titer (10E7-10E8 pfu/ml) stocks of virus were prepared. For large scale production, SF9 insect cells were infected in 10 liter fermentors (Bioprocess group) 0.5×10^6 /ml) with the recombinant baculovirus stock such that the multiplicity of infection was 0.1. […] The homogenate was centrifuged at 10,000×G for 30 minutes, and the resultant supernatant was stored at -80° C. before being assayed for COX activity.
(§2) COX activity was assayed as PGE2 formed/μg protein/time using an ELISA to detect the prostaglandin released. CHAPS-solubilized insect cell membranes containing the appropriate COX enzyme were incubated in a potassium phosphate buffer (50 mM, pH 8.0) containing epinephrine, phenol, and heme with the addition of arachidonic acid (10 μM). […] The PGE2 formed was measured by standard ELISA technology (Cayman Chemical).

The target of series [3] is T2, Murine COX II (Mus musculus, UniProt Q05769).
T2 construct: A 2.0 kb fragment containing the coding region; made in house; host or cells: SF9 insect cells (recombinant baculovirus, pVL1393)
T2 sequence (Q05769 18-604): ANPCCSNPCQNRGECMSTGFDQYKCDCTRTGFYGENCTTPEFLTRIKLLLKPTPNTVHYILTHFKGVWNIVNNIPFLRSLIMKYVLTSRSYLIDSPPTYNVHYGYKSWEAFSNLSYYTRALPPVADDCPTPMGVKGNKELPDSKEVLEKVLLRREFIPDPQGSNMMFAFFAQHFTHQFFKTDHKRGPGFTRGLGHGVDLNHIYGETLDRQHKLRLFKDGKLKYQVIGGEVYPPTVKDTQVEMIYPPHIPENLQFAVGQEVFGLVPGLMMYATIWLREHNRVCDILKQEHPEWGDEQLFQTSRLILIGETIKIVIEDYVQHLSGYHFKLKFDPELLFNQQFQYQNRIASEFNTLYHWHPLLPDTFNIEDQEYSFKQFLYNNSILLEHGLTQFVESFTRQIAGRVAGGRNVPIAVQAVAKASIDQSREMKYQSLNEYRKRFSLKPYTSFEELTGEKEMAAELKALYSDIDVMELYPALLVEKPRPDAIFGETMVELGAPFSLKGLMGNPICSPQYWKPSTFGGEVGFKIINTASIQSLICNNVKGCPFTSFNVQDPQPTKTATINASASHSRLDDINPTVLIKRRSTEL
As to the kind of experiment: COX II activity in vitro (PGE2 ELISA, recombinant enzyme). Format: biochemical. Conditions: arachidonic acid 10 μM, read-out: Murine COX II ID50. Here is the method:
as §1, §2

The test system of series [4] is carrageenan foot edema. As to the kind of experiment: Rat Carrageenan Foot Pad Edema Test. Format: in vivo, rat (male Sprague-Dawley). To be noted: @ 10 mg/kg body weight, oral, 3 h after carrageenan. The procedure:
(§3) The carrageenan foot edema test was performed with materials, reagents and procedures essentially as described by Winter, et al., (Proc. Soc. Exp. Biol. Med., 111, 544 (1962) Male Sprague-Dawlev rats were selected in each group so that the average body weight was as close as possible. Rats were fasted with free access to water for over sixteen hours prior to the test. The rats were dosed orally (1 mL) with compounds suspended in vehicle containing 0.5% methylcellulose and 0.025% surfactant, or with vehicle alone. one hour later a subplantar injection of 0.1 mL of 1% solution of carrageenan/sterile 0.9% saline was administered and the volume of the injected foot was measured with a displacement plethysmometer connected to a pressure transducer with a digital indicator. Three hours after the injection of the carrageenan, the volume of the foot was again measured. The average foot swelling in a group of drug-treated animals was compared with that of a group of placebo-treated animals and the percentage inhibition of edema was determined (Otterness and Bliven, Laboratory Models for Testing NSAIDs, in Non-steroidal Anti-Inflammatory Drugs, (J. Lombardino, ed. 1985)).

Series [5] relates to carrageenan-induced hyperalgesic foot withdrawal. Description: Rat Carrageenan-induced Analgesia Test. Format: in vivo, rat (male Sprague-Dawley). To be noted: oral, 3 h after carrageenan. The procedure: as §3
The analgesia test using rat carrageenan was performed with materials, reagents and procedures essentially as described by Hargreaves, et al., (Pain, 32, 77 (1988)). Male Sprague-Dawley rats were treated as previously described, for the Carrageenan Foot Pad Edema test. Three hours after the injection of the carrageenan, the rats were placed in a special plexiglass container with a transparent floor having a high intensity lamp as a radiant heat source, positionable under the floor. After an initial twenty minute period, thermal stimulation was begun on either the injected foot or on the contralateral uninjected foot. […] The time until the rat withdraws its foot was then measured. The withdrawal latency in seconds was determined for the control and drug-treated groups, and percent inhibition of the hyperalgesic foot withdrawal determined.

Series [6] deals with prostaglandin synthetase. To be noted: U.S. Pat. No. 4,820,827; cited from earlier work.
Series [7] relates to COX II enzyme. To be noted: J. Biol. Chem., 268, 6610 (1993); cited from earlier work.
The conditions of series [8]: Gen. Pharmac., 24, 105 (1993); cited from earlier work.

As for `CCOC(=O)CCc1scc(-c2ccccc2)c1-c1ccccc1` [ethyl 3,4-diphenylthiophene-2-propionate], in series [1], the antiinflammatory activity result is “antiinflammatory activity”.

Turning to `CS(=O)(=O)c1ccc(-c2c(Br)sc(Br)c2-c2ccc(F)cc2)cc1` [Example 3, 4-(4-Methylsulfonylphenyl)-3-(4-fluorophenyl)-2,5-dibromothiophene], in series [2], the IC50 amounted to 100 µM.

Regarding `CCOC(=O)c1sc(C(=O)O)c(-c2ccc(F)cc2)c1-c1ccc(S(C)(=O)=O)cc1` [Example 8, 2-Ethoxycarbonyl-4-(4-fluorophenyl)-3-(4-methanesulfonylphenyl)-thienyl-5-carboxylic acid], the IC50 in series [2] was > 100 µM; in series [3], 5.5 µM.

With `CS(=O)(=O)c1ccc(-c2cscc2-c2ccc(F)nc2)cc1` [Example 14], the “RAT PAW EDEMA % Inhibition” value in series [4] was determined as 30%. The “ANALGESIA % Inhibition” value in series [5] (@ 20 mg/kg body weight) is given as 28%.

In the case of `CSc1ccc(-c2sc(Br)cc2-c2ccc(F)cc2)cc1` [5-bromo-2-(4-methylthiophenyl)-3-(4-fluorophenyl)thiophene], in series [1], the antiinflammatory activity result was “antiinflammatory”. In addition, the “prostaglandin synthetase inhibitory activity” value in series [6] is reported as “prostaglandin synthetase inhibitory activity”.

On to `CS(=O)(=O)c1ccc(-c2csc(Br)c2-c2ccc(F)cc2)cc1` [Example 2, 4-(4-Methylsulfonylphenyl)-3-(4-fluorophenyl)-2-bromothiophene], for which the “RAT PAW EDEMA % Inhibition” value in series [4] is given as 30%. Moreover, the “ANALGESIA % Inhibition” value in series [5] (@3 mpk) is listed as 0%.

Consider `COc1ccc(-c2cscc2-c2ccc(OC)cc2)cc1` [Example 4, 3,4-Bis(4-methoxyphenyl)thiophene], for which the “RAT PAW EDEMA % Inhibition” value in series [4] came to 22%.

Take `COc1ccc2cc(CC(=O)O)ccc2c1` [6-methoxy-2-napthylacetic acid]: the “inhibition of the COX II enzyme” value in series [7] is “selectively inhibit the COX II enzyme”.

`Cc1cc(F)ccc1-c1cscc1-c1ccc(S(C)(=O)=O)cc1` [Example 15]: the “RAT PAW EDEMA % Inhibition” value in series [4] was 20%.

Take `CS(=O)(=O)Nc1ccc([N+](=O)[O-])cc1OC1CCCCC1` [N-(2-cyclohexyloxy-4-nitrophenyl)methanesulfonamide]: the gastric side effects result in series [8] is on record as “lacks gastric side effects”. For the same molecule, the antiinflammatory activity result in series [1] is listed as “antiinflammatory”.

With `CS(=O)(=O)c1ccc(-c2cscc2-c2ccc(F)cc2)cc1` [Example 1, 3-(4-Methylsulfonylphenyl)-4-(4-fluorophenyl)thiophene], the “ANALGESIA % Inhibition” value in series [5] (@ 20 mg/kg body weight) was 8%.
